Where a SMILES comes first, the peptide text is derived from it. Bridges are numbered along the chain shown (N, C = ends). Where no end group is shown, it is not given here. The star is where a group is joined. Paclitaxel(2'-O-succinyl) = CC(=O)O[C@H]1C(=O)[C@@]2(C)[C@H]([C@H](OC(=O)c3ccccc3)[C@]3(O)C[C@H](OC(=O)[C@H](OC(=O)CCC(=O)*)[C@@H](NC(=O)c4ccccc4)c4ccccc4)C(C)=C1C3(C)C)[C@]1(OC(C)=O)CO[C@@H]1C[C@@H]2O
What was measured:
U87MG brain glioma = experiment: Survival time of brain glioma model mice; type: in vivo, nude mice; details: tail vein, equal dose
Method: On the first day, 10^6 U87MG cells were inoculated at the right caudate nucleus of nude mice of 6-8 weeks old. Three days later, a solvent or equal dose of paclitaxel or PBL001 was administered via the tail vein, and the survival time of each group of mice was recorded, as shown in FIG. 13.

U87 brain tumors = details: mouse, in vivo
Method: Cyanine5.5 NHS ester labeling reagent of the Lumiprobe brand was used to fluorescently label each short peptide, and each short peptide was labeled with one fluorescent molecule. […] The fluorescence intensity per unit area was calculated for the brain tumor site and other brain sites respectively, and the enrichment factor of the corresponding polypeptide at the tumor site can be obtained by dividing the fluorescence intensity per unit area at the brain tumor site by the fluorescence intensity per unit area at other brain sites.

u87 brain glioma = experiment: Enrichment of fluorescent short peptides in brain and tumor of u87 brain glioma model mice; type: in vivo, nude mice
Method: u87 brain glioma cells were cultivated. When the cells grew to a sufficient amount, the cells were taken, 8-weeks old nude mice were selected, the brains were located, and 5× 10^5 cells were injected at the location for brain tumorigenesis. U87 tumorigenesis cell line is a cell line with luciferase gene transferred, and the mouse imager can be used to observe the tumorigenesis effect in real time.
After tumorigenesis of the tumor model mice became stable, 100 μl of solution of short peptides labeled with fluorescent molecules was injected into the tail veins. A short peptide Angiopep 2, which was from the Angiochem company and was reported in an article to be able to cross the blood-brain barrier, was selected as a reference control. It is currently reported that this short peptide has excellent applications in crossing the blood-brain barrier and targeting brain tumors. The negative control was fluorescent molecule cy5.5 of the same amount of fluorescence equivalent. After the tail vein injection, the small animal in vivo imaging system IVIS was used to check the brain fluorescence. 100 μl of 5 mg/ml luciferase reaction substrate was injected into the intraperitoneal cavity. After 5 minutes, the small animal imaging system was used to check the brain tumors.
The brains of the mice were taken and the fluorescence of the brains was compared.

## CC[C@H](C)[C@H](NC(=O)CNC(=O)[C@H](CCCNC(=N)N)NC(=O)[C@H](CC(C)C)NC(=O)[C@H](Cc1ccccc1)NC(=O)[C@H](CC(N)=O)NC(=O)[C@H](CC(N)=O)NC(=O)[C@H](CCCNC(=N)N)NC(=O)[C@H](CCCCNC(=O)CCC(=O)O[C@@H](C(=O)O[C@H]1C[C@@]2(O)[C@@H](OC(=O)c3ccccc3)[C@@H]3[C@]4(OC(C)=O)CO[C@@H]4C[C@H](O)[C@@]3(C)C(=O)[C@H](OC(C)=O)C(=C1C)C2(C)C)[C@@H](NC(=O)c1ccccc1)c1ccccc1)NC(=O)[C@@H]1CCCN1C(=O)[C@H](CCCNC(=N)N)NC(=O)CNC(=O)CNC(=O)[C@H](Cc1ccc(O)cc1)NC(=O)[C@H](Cc1ccccc1)NC(=O)[C@@H](NC(=O)CCC(=O)O[C@@H](C(=O)O[C@H]1C[C@@]2(O)[C@@H](OC(=O)c3ccccc3)[C@@H]3[C@]4(OC(C)=O)CO[C@@H]4C[C@H](O)[C@@]3(C)C(=O)[C@H](OC(C)=O)C(=C1C)C2(C)C)[C@@H](NC(=O)c1ccccc1)c1ccccc1)[C@@H](C)O)C(=O)N[C@@H](CCCNC(=N)N)C(=O)N[C@@H](CO)C(=O)N[C@@H](CCCNC(=N)N)C(=O)NCC(=O)N[C@@H](CC(=O)O)C(=O)O [PBL001] ({Paclitaxel(2'-O-succinyl)}-TFYGGRPK(Paclitaxel(2'-O-succinyl))RNNFLRGIRSRGD-OH)
U87MG brain glioma
  toxic and side effects compared with paclitaxel: lower toxic and side effects

## CC[C@H](C)[C@H](NC(=O)CNC(=O)[C@H](CCCNC(=N)N)NC(=O)[C@H](CC(C)C)NC(=O)[C@H](Cc1ccccc1)NC(=O)[C@H](CC(N)=O)NC(=O)[C@H](CC(N)=O)NC(=O)[C@H](CCCNC(=N)N)NC(=O)[C@H](CCCCN)NC(=O)[C@@H]1CCCN1C(=O)[C@H](CCCNC(=N)N)NC(=O)CNC(=O)CNC(=O)[C@H](Cc1ccc(O)cc1)NC(=O)[C@H](Cc1ccccc1)NC(=O)[C@@H](N)[C@@H](C)O)C(=O)N[C@@H](CCCNC(=N)N)C(=O)N[C@H]1CSSC[C@@H](C(=O)O)NC(=O)[C@H](CC(=O)O)NC(=O)[C@@H]2CCCN2C(=O)CNC(=O)[C@H](CCCCN)NC(=O)[C@H](CC(=O)O)NC(=O)CNC(=O)[C@H](CCCNC(=N)N)NC1=O [SEQ ID NO:8] (H-TFYGGRPKRNNFLRGIRCRGDKGPDC-OH; disulfide 18-26; N-terminus and C-terminus assumed)
U87 brain tumors
  tumor enrichment (enrichment factor tumor site / other brain sites) compared to SEQ ID NO:2 peptide: not as significant as the other three synthesized polypeptides

## TFYGGRPKRNNFLRGIRSRGD [Pb001]
u87 brain glioma; brain glioma model mice (FIG. 6)
  brain fluorescence intensity relative to fluorescently labeled reference peptide Angiopep2: 1.2 times
u87 brain glioma; brain glioma model mice (FIG. 7)
  fluorescence accumulation in the brain tumor site: obvious fluorescence accumulation
u87 brain glioma; brain glioma model mice, tail vein injection, after perfusion (FIG. 5)
  brain enrichment amount compared with fluorescently labeled reference peptide Angiopep2: better than that of the fluorescently labeled reference peptide Angiopep2

From patent publication US12343400B2, “Brain tumor-targeting peptide and application thereof” (priority 2018, dated 2025)
